According to patent US20220062345A1, “PHARMACEUTICAL COMPOSITION CONTAINING PROTEIN KINASE C ACTIVATOR-TREATED STEM CELLS OR CULTURE THEREOF FOR PREVENTING OR TREATING AUTOIMMUNE DISEASES” (CORESTEM CO.,LTD., priority 2018, published 2022):

Legend:
B cells = assay: Co-culture of B cells isolated from PBMC with hMSC and ODN, IgM in supernatant by ELISA; assay type: cell-based; details: screening of 20 types of chemicals treated to human MSC
Protocol: Human mesenchymal stern cells (MSC) were obtained from hone marrow (BM) cells of human tibiae and femurs. BM cells were cultured in α-MEM medium including 10% fetal bovine serum (FBS), 2 mM L-glutamine, and penicillin/streptomycin under a condition of 37° C. and 5% CO2. Non-adherent cells were removed on day 1, and adhered cells were cultured with medium replenishment every 3 days and used between day 17 and day 20.
As substances used for the pretreatment condition for hMSC, PMA (10 ng/mL, 24-hour treatment, Sigma), I3A (10 μg/mL, 24-hour treatment, Sigma), and IFN-γ (10 ng/mL, 7-day treatment, Sigma) were used.
IFN-γ measurement'as performed according to the test method provided by R&D (#DY285-05), and for IgM, the IgM ELISA kit (eBioscience, Vienna, Austria) was used for measurement. […] Finally, the value was measured at 450 nm to 570 nm.
After B cells (1×10^5 cells/well) isolated from peripheral blood mononuclear cells (PBMC) and PMA-treated hMSC (1×10^3 cells/well) were co-cultured for 72 hours with CpG oligodeoxynucleotides (ODN, 5 μg/mL), the level of IgM in the supernatant was measured by ELISA (A in FIG. 1). T cells (1×10^5 cells/well) isolated from PBMC and PMA-treated hMSCs×10^3 cells/well) were co-cultured for 72 hours with phytohemagglutinin (PHA, 5 ug/mL), and the level of IFN-γ in the supernatant was measured by ELISA (B in FIG. 1). […]

MSC [1] = assay: Chemokines of MSC by RT-PCR and ELISA; assay type: cell-based, human; details: MSC treated with PMA; mRNA (RT-PCR) and protein (ELISA)
Protocol: Cells were treated with Trypsin-EDTA (Gibco) at […] at a time point when the confluency of 70% to 80% was reached, followed by culturing under a condition of 5% CO2 and 37° C. After 24 hours of material treatment, the cells were recovered, and the total RNA was isolated from the cells using the TRIZOL reagent (invitrogen, MD, USA), and the total RNA was quantified by absorbance measurement at 260 nm.
A total RNA concentration of 0.3 μg was used, and it was synthesized at 42° C. for 1 hour and at 95° C. for 5 minutes. Polymerase chain reaction was performed using 3 μL of synthesized cDNA and 10 pM of a primer. […]
(§1) The expression levels of mRNA for FasL, PD-L1, PD-L2, ICAM1, VCAM1, β-actin, IFN-γ, TNF-α, IL-12, COX-2, iNOS, IDO, TGF-β, CCL2, CCL3, CXCL10, and CXCL12 were analyzed by quantitative real-time PCR (qPCR). The relative mRNA amount of each sample was calculated based on a threshold cycle (Ct) compared to the threshold cycle (Ct) of β-actin, which is a housekeeping gene.
The chemokines of MSC were analyzed by RT-PCR (A in FIG. 2) and ELISA (B in FIG. 2) at mRNA and protein levels, respectively. […] The migration of B cells with respect to MSC was measured using a transwell, MSCs were seeded in the lower well, and B cells were seeded in the upper well. […]

PKC-α and δ = assay: PKC signaling in MSC by western blot; assay type: cell-based, human; details: PMA treated to MSC, 24 hours
Protocol: Cells were lysed in ice using a cell lysis buffer (Cell Signaling Technology, Danvers, Mass., USA). Proteins were obtained by centrifugation at 12,000 rpm for 15 minutes at 4° C. The proteins were quantified using the Bradford reagent, and electrophoresis was performed at 75V with 20 μg of the proteins by using an SDS-polyacrylamide gel. After the SDS-polyacrylamide gel was transferred to a PVDF membrane at 95V for 90 minutes, 5% nonfat dry milk was added to TBS (TTBS) including 0.5% Tween 20 and blocked for 1 hour. After blocking, the membrane was placed in 5% BSA/TTBS including a primary antibody and shaken at 4° C. for one day. […] After washing the membrane with TTBS and reacting the membrane with enhanced chemiluminescence (ECL, Amersham Pharmacia Biotech, Piscataway, N.J., USA), the degree of protein expression was measured using a ChemiDoc™ XRS+ machine (Bio-Rad, CA, USA).
PMA was treated to MSC, and after 24 hours, proteins were obtained, and signaling was analyzed through western blot (A in FIG. 4). A PKC inhibitor (Go6983, 1 ug/mL) was pre-treated to MSC for 1 hour, and after PMA was treated, proteins were obtained after 24 hours, and signaling was analyzed through western blot (B in FIG. 4). […] Then, the level of IgM in the supernatant was measured by ELISA (C in FIG. 4). The mRNA levels of the surface molecules of the PMA-treated MSCs were analyzed via RT-PCR (D in FIG. 4). […]

MSC [2] = assay: Surface molecules of PMA-treated MSC by RT-PCR and FACS; assay type: cell-based, human; details: PMA treated to MSC, RT-PCR
Protocol: as §1
PMA was treated to MSC, and after 24 hours, proteins were obtained, and signaling was analyzed through western blot (A in FIG. 4). A PKC inhibitor (Go6983, 1 ug/mL) was pre-treated to MSC for 1 hour, and after PMA was treated, proteins were obtained after 24 hours, and signaling was analyzed through western blot (B in FIG. 4). After MSC was pretreated with the PKC inhibitor (Go6983, 1 ug/mL) for 1 hour and PMA was treated, B cells (1×10^5 cells/well) that were isolated from PBMC and PMA-treated MSCs (1×10^3 cells/well) were co-cultured with ODN for 72 hours. Then, the level of IgM in the supernatant was measured by ELISA (C in FIG. 4). The mRNA levels of the surface molecules of the PMA-treated MSCs were analyzed via RT-PCR (D in FIG. 4). The expressions of PD-L1 of the PMA-treated MSC and PD1 of the B cells were analyzed through FACS (E in FIG. 4). After treating the FasL blocking Ab (10 ug/mL) (F) and the PD-L1 blocking Ab (10 ug/mL) (G) to MSCs and adding PMA, MSCs and B cells were cultured with ODN for 72 hours, and then, the IgM level in the supernatant was measured by ELISA. The PMA-treated MSCs were treated with siRNA to confirm […] at the mRNA level via RT-PCR. After the PMA-treated MSCs, in which PD-L1 was knocked down, and B cells were cultured with ODN for 72 hours, the IgM level in the supernatant was measured by ELISA (H in FIG. 4). PMA was treated to the MSCs, and after 24 hours, the total RNA was obtained, and soluble factors were analyzed via RT-PCR (I in FIG. 4).

## CCCCCCCCCCCCCC(=O)O[C@@H]1[C@@H](C)[C@@]2(O)[C@@H](C=C(CO)C[C@]3(O)C(=O)C(C)=C[C@@H]23)[C@@H]2C(C)(C)[C@]12OC(C)=O [PMA, phorbol myristate acetate]
B cells
  human B cell function: inhibits
MSC [1]
  expression of CXCL10 in MSC: increased
PKC-α and δ
  PKC-α and δ in the cytoplasm of MSC: transferred to the cell membrane
  phosphorylation of ERK in MSC: increased
MSC [2]
  FasL expression in MSC: expressed
  PD-L2 expression in MSC: expressed
MSC [2]; FACS
  PD-L1 expression in MSC: expressed
